Assay results reported in the supplement of paper PMC4862054.

Test system: BT-474
Test: normalised response (% of control), CellTiter-Glo; higher = more viable cells (100 = DMSO, 0 = benzethonium chloride kill control)
Conditions: incubation time: 72 h
Procedure, shortened: (§1)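 For each plate, 0.1 % DMSO was set to 100 and a positive kill control to 0. Breast cancer cell lines (20 µl suspension) were seeded into 384-well plates already holding compound at 5 concentrations in 10-fold steps over a 10,000-fold range chosen per compound, and incubated for 72 h. CellTox Green fluorescence at 485/520 nm was read before CellTiter-Glo luminescence, which followed 10 min at room temperature. Each value is the normalised signal at one concentration.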

Point of comparison: `CNC(=O)c1cc(Oc2ccc(NC(=O)Nc3ccc(Cl)c(C(F)(F)F)c3)c(F)c2)ccn1` [Regorafenib] (1000 nM), normalised response 91.8%. Against it:
- O=C(Nc1ccncc1)C(=O)c1cn(Cc2ccc(Cl)cc2)c2ccccc12 [Indibulin] (1000 nM) — lower, 70.8%
- NC(=O)c1ccc(I)c([N+](=O)[O-])c1 [Iniparib] (1000 nM) — lower, 90%
- CCc1c2c(nc3ccc(OC(=O)N4CCC(N5CCCCC5)CC4)cc13)-c1cc3c(c(=O)n1C2)COC(=O)[C@]3(O)CC [Irinotecan] (1000 nM) — lower, 91%
- Oc1ccc2c(c1)CC[C@H](c1ccccc1)[C@@H]2c1ccc(OCCN2CCCC2)cc1 [Lasofoxifene] (100 nM) — higher, 104%
- Cc1ccc(NC(=O)c2ccc(CN3CCN(C)CC3)cc2)cc1Nc1nc(-c2cccnc2)cs1 [Masitinib] (1000 nM) — higher, 104%
- O=C(Nc1cccnc1)N1CCC(Cc2cccc(Oc3ccc(C(F)(F)F)cn3)c2)CC1 [PF-3845] (1000 nM) — higher, 99.2%
- Cc1[nH]c2ccccc2c1CCNCc1ccc(/C=C/C(=O)NO)cc1 [Panobinostat] (100 nM) — lower, 13.4%
- COCC1(CO)C(=O)C2CCN1CC2 (configuration not stated) [Prima-1 Met] (1000 nM) — higher, 102%
- c1ccc2c(CCNc3ccc(Nc4ccncc4)cc3)c[nH]c2c1 [Serdemetan] (1000 nM) — lower, 76.4%
- CN(C)CCOc1ccc(/C(=C(/CCCl)c2ccccc2)c2ccccc2)cc1 [Toremifene] (1000 nM) — higher, 98.7%
- CC(C)C[C@@H](C(=O)N[C@H](C(=O)OC1CCCC1)c1ccccc1)[C@H](O)C(=O)NO [Tosedostat] (1000 nM) — lower, 40.6%
- COCC[n+]1c2c(n(Cc3cnccn3)c1C)C(=O)c1ccccc1C2=O [YM155] (1000 nM) — lower, 0.29%

Test system: MCF-10A
Test: as above
Conditions: incubation time: 72 h
Procedure, shortened: as §1

Point of comparison: `CN(C)CCOc1ccc(/C(=C(/CCCl)c2ccccc2)c2ccccc2)cc1` [Toremifene] (1000 nM), normalised response 92.3%. Against it:
- N#Cc1ccc(COC[C@H]2O[C@@H](n3c(NCc4ccc(Cl)c(Cl)c4)nc4c(N)ncnc43)[C@H](O)[C@@H]2O)cc1 (1000 nM) — higher, 96.6%
- COc1cc(OC2CCN(C)CC2)ccc1Nc1ncc2c(n1)n(C1CCCC1)c(=O)n2C [AZ 3146] (1000 nM) — higher, 92.5%
- CN(C)c1nc(N(C)C)nc(N(C)C)n1 [Altretamine] (1000 nM) — higher, 103%
- O=C(/C=C/c1cccc(S(=O)(=O)Nc2ccccc2)c1)NO [Belinostat] (1000 nM) — lower, 55.6%
- O=P1(N(CCCl)CCCl)NCCCO1 (configuration not stated) [Cyclophosphamide] (4000 nM) — higher, 103%
- C=C1C[C@@H]2[C@H](CC[C@]3(C)C(=O)CC[C@@H]23)[C@@]2(C)C=CC(=O)C=C12 [Exemestane] (1000 nM) — higher, 112%
- COc1cc2ncnc(Nc3ccc(F)c(Cl)c3)c2cc1OCCCN1CCOCC1 [Gefitinib] (1000 nM) — lower, 34.2%
- O=C(Nc1ccncc1)C(=O)c1cn(Cc2ccc(Cl)cc2)c2ccccc12 [Indibulin] (1000 nM) — lower, 89.8%
- NC(=O)c1ccc(I)c([N+](=O)[O-])c1 [Iniparib] (1000 nM) — lower, 82%
- CCc1c2c(nc3ccc(OC(=O)N4CCC(N5CCCCC5)CC4)cc13)-c1cc3c(c(=O)n1C2)COC(=O)[C@]3(O)CC [Irinotecan] (1000 nM) — lower, 88.3%
- Oc1ccc2c(c1)CC[C@H](c1ccccc1)[C@@H]2c1ccc(OCCN2CCCC2)cc1 [Lasofoxifene] (100 nM) — higher, 114%
- Cc1ccc(NC(=O)c2ccc(CN3CCN(C)CC3)cc2)cc1Nc1nc(-c2cccnc2)cs1 [Masitinib] (1000 nM) — higher, 105%
- O=C(Nc1cccnc1)N1CCC(Cc2cccc(Oc3ccc(C(F)(F)F)cn3)c2)CC1 [PF-3845] (1000 nM) — higher, 111%
- Cc1[nH]c2ccccc2c1CCNCc1ccc(/C=C/C(=O)NO)cc1 [Panobinostat] (100 nM) — lower, 49.1%
- COCC1(CO)C(=O)C2CCN1CC2 (configuration not stated) [Prima-1 Met] (1000 nM) — higher, 97.8%
- CNC(=O)c1cc(Oc2ccc(NC(=O)Nc3ccc(Cl)c(C(F)(F)F)c3)c(F)c2)ccn1 [Regorafenib] (1000 nM) — lower, 90.6%
- c1ccc2c(CCNc3ccc(Nc4ccncc4)cc3)c[nH]c2c1 [Serdemetan] (1000 nM) — lower, 86.2%
- CC(C)C[C@@H](C(=O)N[C@H](C(=O)OC1CCCC1)c1ccccc1)[C@H](O)C(=O)NO [Tosedostat] (1000 nM) — lower, 87.3%
- COCC[n+]1c2c(n(Cc3cnccn3)c1C)C(=O)c1ccccc1C2=O [YM155] (1000 nM) — lower, -0.7%

Test system: Hs578T
Test: not given
Conditions: 72 h
Procedure, shortened: (§2)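 EC50 was fitted from dose-response curves and censored at the highest concentration tested. To build those curves, breast cancer cell lines (20 µl suspension) were seeded into 384-well plates containing compound at 5 concentrations in 10-fold steps over a compound-specific 10,000-fold range and incubated for 72 h. Readouts were CellTox Green fluorescence (485/520 nm) for cell death and then CellTiter-Glo luminescence for viability, with each plate normalised to 0.1 % DMSO and a positive kill control.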

Point of comparison: `O=C(Nc1ccncc1)C(=O)c1cn(Cc2ccc(Cl)cc2)c2ccccc12` [Indibulin], “EC50, CellTiter-Glo” value 482 nM. Against it:
- CCn1c(-c2nonc2N)nc2cnc(Oc3cccc(NC(=O)c4ccc(OCCN5CCOCC5)cc4)c3)cc21 — 4.3-fold higher, 2050 nM
- N#Cc1ccc(COC[C@H]2O[C@@H](n3c(NCc4ccc(Cl)c(Cl)c4)nc4c(N)ncnc43)[C@H](O)[C@@H]2O)cc1 — 3.6-fold higher, 1740 nM
- CNC(=O)c1cccc(-c2ccc3c(N4CCOC[C@@H]4C)nc(N4CCOC[C@@H]4C)nc3n2)c1 [AZD2014] — within 1.5-fold, 459 nM

Test system: CAL-148
Test: not given
Conditions: 72 h
Procedure, shortened: as §2

Point of comparison: `CCn1c(-c2nonc2N)nc2cnc(Oc3cccc(NC(=O)c4ccc(OCCN5CCOCC5)cc4)c3)cc21`, “EC50, CellTiter-Glo” value 1240 nM. Against it:
- CNC(=O)c1cccc(-c2ccc3c(N4CCOC[C@@H]4C)nc(N4CCOC[C@@H]4C)nc3n2)c1 [AZD2014] — 3.1-fold lower, 395 nM
- COc1cc2ncnc(Nc3ccc(F)c(Cl)c3)c2cc1OCCCN1CCOCC1 [Gefitinib] — 1.6-fold lower, 788 nM

Test system: SK-BR-3
Test: not given
Conditions: 72 h
Procedure, shortened: as §2

Point of comparison: `CCn1c(-c2nonc2N)nc2cnc(Oc3cccc(NC(=O)c4ccc(OCCN5CCOCC5)cc4)c3)cc21`, “EC50, CellTiter-Glo” value 1880 nM. Against it:
- N#Cc1ccc(COC[C@H]2O[C@@H](n3c(NCc4ccc(Cl)c(Cl)c4)nc4c(N)ncnc43)[C@H](O)[C@@H]2O)cc1 — within 1.5-fold, 2580 nM
- CNC(=O)c1cccc(-c2ccc3c(N4CCOC[C@@H]4C)nc(N4CCOC[C@@H]4C)nc3n2)c1 [AZD2014] — 16-fold lower, 116 nM
- O=C(Nc1ccncc1)C(=O)c1cn(Cc2ccc(Cl)cc2)c2ccccc12 [Indibulin] — 5.3-fold lower, 355 nM

Test system: CAL-51
Test: not given
Conditions: 72 h
Procedure, shortened: as §2

Point of comparison: `CNC(=O)c1ccc(N2C(=S)N(c3ccc(C#N)c(C(F)(F)F)c3)C(=O)C2(C)C)cc1F` [Enzalutamide], “EC50, CellTiter-Glo” value 48.6 nM. Against it:
- CCn1c(-c2nonc2N)nc2cnc(Oc3cccc(NC(=O)c4ccc(OCCN5CCOCC5)cc4)c3)cc21 — 95-fold higher, 4640 nM
- CNC(=O)c1cccc(-c2ccc3c(N4CCOC[C@@H]4C)nc(N4CCOC[C@@H]4C)nc3n2)c1 [AZD2014] — 2.7-fold higher, 131 nM
- O=C(Nc1ccncc1)C(=O)c1cn(Cc2ccc(Cl)cc2)c2ccccc12 [Indibulin] — 3.4-fold higher, 165 nM
- O=C(Nc1cccnc1)N1CCC(Cc2cccc(Oc3ccc(C(F)(F)F)cn3)c2)CC1 [PF-3845] — 86-fold higher, 4200 nM
- COc1cc2/c(=N/c3ccc(Br)cc3F)nc[nH]c2cc1OCC1CCN(C)CC1 [Vandetanib] — higher, > 1000 nM

Test system: MDA-MB-231
Test: not given
Conditions: 72 h
Procedure, shortened: as §2

Point of comparison: `O=C(Nc1ccncc1)C(=O)c1cn(Cc2ccc(Cl)cc2)c2ccccc12` [Indibulin], “EC50, CellTiter-Glo” value 1040 nM. Against it:
- CCn1c(-c2nonc2N)nc2cnc(Oc3cccc(NC(=O)c4ccc(OCCN5CCOCC5)cc4)c3)cc21 — within 1.5-fold, 1500 nM
- CNC(=O)c1cccc(-c2ccc3c(N4CCOC[C@@H]4C)nc(N4CCOC[C@@H]4C)nc3n2)c1 [AZD2014] — 3.3-fold lower, 316 nM

Test system: MDA-MB-436
Test: not given
Conditions: 72 h
Procedure, shortened: as §2

Point of comparison: `CCn1c(-c2nonc2N)nc2cnc(Oc3cccc(NC(=O)c4ccc(OCCN5CCOCC5)cc4)c3)cc21`, “EC50, CellTiter-Glo” value 3670 nM. Against it:
- CNC(=O)c1cccc(-c2ccc3c(N4CCOC[C@@H]4C)nc(N4CCOC[C@@H]4C)nc3n2)c1 [AZD2014] — 30-fold lower, 121 nM
- O=C(Nc1ccncc1)C(=O)c1cn(Cc2ccc(Cl)cc2)c2ccccc12 [Indibulin] — 18-fold lower, 203 nM
- COc1cc2/c(=N/c3ccc(Br)cc3F)nc[nH]c2cc1OCC1CCN(C)CC1 [Vandetanib] — not separable, > 1000 nM

Test system: HCC1599
Test: not given
Conditions: 72 h
Procedure, shortened: as §2

Point of comparison: `O=C(Nc1ccncc1)C(=O)c1cn(Cc2ccc(Cl)cc2)c2ccccc12` [Indibulin], “EC50, CellTiter-Glo” value 129 nM. Against it:
- CNC(=O)c1cccc(-c2ccc3c(N4CCOC[C@@H]4C)nc(N4CCOC[C@@H]4C)nc3n2)c1 [AZD2014] — 28-fold higher, 3620 nM
- O=C(Nc1cccnc1)N1CCC(Cc2cccc(Oc3ccc(C(F)(F)F)cn3)c2)CC1 [PF-3845] — 73-fold higher, 9420 nM

Test system: BT-549
Test: not given
Conditions: 72 h
Procedure, shortened: as §2

Point of comparison: `N#Cc1ccc(COC[C@H]2O[C@@H](n3c(NCc4ccc(Cl)c(Cl)c4)nc4c(N)ncnc43)[C@H](O)[C@@H]2O)cc1`, “EC50, CellTiter-Glo” value 1520 nM. Against it:
- CCn1c(-c2nonc2N)nc2cnc(Oc3cccc(NC(=O)c4ccc(OCCN5CCOCC5)cc4)c3)cc21 — 2.8-fold higher, 4290 nM
